Entries after “also recorded” stand apart in the source; their conditions may differ. Where two headings read alike, the source gives them in different places.
What was measured:
preclinical tumor models = settings: cited from earlier work
[1] = Fractional amounts of lactone species of CPT-11 and HECPT (Rothenburg et al.); format: in vivo, human; settings: Table 4
Excerpt: Fractional Amounts of Lactone Species of CPT-11 and HECPT as
Function of Increasing Single Dose LV. From Rothenburg et al.

Tumor = settings: cited from earlier work; for Toxicity: * dose limiting toxicity
[2] = tested on: Untreated Non Small Cell Lung Cancer; settings: 100 mg/m^2 weekday; cited from earlier work
[3] = tested on: Refractory or Relapsed Small Cell Lung Ca; settings: 100 mg/m^2 weekly; cited from earlier work
Small Cell Lung Cancer = settings: 100 mg/m^2/week; cited from earlier work
Leukemia/Lymphoma = settings: cited from earlier work
Colon cancer = settings: 100 mg/m^2/week or 150 mg/m^2/Q 2 wks; cited from earlier work
Cervical cancer = settings: 100 mg/m^2 weekly, 150 mg/m^2 weeks; cited from earlier work
[4] = cited from earlier work
[5] = tested on: Topoisomerase I purified from human colon carcinoma cells or calf thymus; settings: cited from earlier work
human tumors = settings: nude mice xenografts; cited from earlier work
[6] = cited from earlier work; for sporadic toxicities: relative to parent compound
[7] = cited from earlier work; remark: listed apart in the source
[8] = cited from earlier work; remark: listed apart in the source
L1210 leukemia = settings: 10-100 mg/kg intraperitoneally; cited from earlier work
[9] = cited from earlier work; remark: listed apart in the source
topoisomerase I [10] = settings: cited from earlier work
[11] = Pharmacokinetics of CPT-11 and HECPT, 5-day continuous infusion of CPT-11 (Ohe et al.); format: in vivo, human; settings: e.g., above 30 mg/m^2/d
Excerpt: Initially, patients may be treated in a dose escalation protocol to determine the maximal tolerated dose of the ECPT formulation. […] For the purpose of this invention, "AUC" is defined as "area under the curve" and "CpMax" is defined as "the maximum plasma concentrate at the end of I.V.

topoisomerase I [12] = settings: P388 cells; cited from earlier work
MOLT3 cells = settings: cited from earlier work
P388 tumor = settings: intermittent bolus days 1, 5, 9, i.p.; cited from earlier work
[13] = after CPT-11 versus HECPT administration; cited from earlier work
DNA single-strand breaks = settings: cells exposed to HECPT; cited from earlier work
[14] = U.S. Pat. No. 4,713,246; cited from earlier work
[15] = mice; cited from earlier work
[16] = Phase II; cited from earlier work
[17] = first Rothenberg line, no dose given

CC[C@@]1(O)C(=O)OCc2c1cc1n(c2=O)Cc2cc3cc4c(cc3nc2-1)OCO4 [10,11 methylene dioxycamptothecin, 10,11 methylenedioxy camptothecin]
antitumor activity in preclinical studies (preclinical tumor models): very active

CCc1c2c(nc3ccc(OC(=O)N4CCC(N5CCCCC5)CC4)cc13)-c1cc3c(c(=O)n1C2)COC(=O)[C@]3(O)CC [CPT-11, 7-Ethyl-10-[4-(1-piperidino)-1-piperidino]Carbonyloxy-Camptothecin]
overall fractional concentration of the lactone species through a range of doses [1]: fairly constant | Toxicity (Tumor; Clavel et al, 90 min. QDx3 Q21 days, 115 mg/m^2/d (33-115)): Neutropenia* diarrhea; also recorded: nausea and vomiting; also recorded: alopecia | Tumor Type (responses) (Tumor; Clavel et al, Breast): 1 PR | Tumor Type (responses) (Tumor; Clavel et al, Mesothelioma): 1 PR | Toxicity (Tumor; Culine et al, 90 min. Q21 days, 150 mg/m^2/wk (50-150)): Neutropenia* diarrhea*; also recorded: vomiting, alopecia; also recorded: fatigue stomatitis | Tumor Type (responses) (Tumor; Culine et al, cervix): 1 PR | Tumor Type (responses) (Tumor; Culine et al, esophagus): 1 PR | Tumor Type (responses) (Tumor; Culine et al, ovarian): 1 PR | Tumor Type (responses) (Tumor; Culine et al, renal): 1 PR | Toxicity (Tumor; Negoro et al, 30 min infusion, 100 mg/m^2 (50-150)): Diarrhea*, N/V | Tumor Type (responses) (Tumor; Negoro et al, NS CLC): 2 PRs | Tumor Type (responses) (Tumor; Ohe et al, 120 hr CI): None | Toxicity (Tumor; Rothenberg et al, 90 mg QWx4 Q42 days, 180 mg/m^2/wk (50-180)): Neutropenia, nausea; also recorded: vomiting, alopecia | Tumor Type (responses) (Tumor; Rothenberg et al, Colon Ca): 2 PRs | Toxicity (Tumor; Rowinsky et al, 90 min infusion Q21 day, 240 mg/m^2 (100-345)): Neutropenia* vomiting; also recorded: diarrhea abd. pain; also recorded: flushing | Tumor Type (responses) (Tumor; Rowinsky et al, Cervix Ca): 1 PR | Tumor Type (responses) (Tumor; Rowinsky et al, Colon Ca): 1 PR | Reported Toxicities [2]: anorexia, alopecia; also recorded: Neutropenia diarrhea; also recorded: nausea, vomiting | Response (PRs) [2]: 23/72 | Response Rate [2]: 31.9% | Reported Toxicities [3]: Neutropenia, diarrhea | Reported Toxicities: pneumonitis [3]: 12.5% | Response (PRs) [3]: 7/15 | Response Rate [3]: 47% | Reported Toxicities: N/V (Small Cell Lung Cancer): 61.5% | Reported Toxicities: alopecia (Small Cell Lung Cancer): 40.0% | Reported Toxicities: diarrhea (Small Cell Lung Cancer): 53.8% | Response: CRs (Small Cell Lung Cancer): 2 CRs | Response: PRs (Small Cell Lung Cancer): 7 PRs | Response Rate (RR) (Leukemia/Lymphoma; 20 mg/m^2 bid x7): 25% | Response Rate (PR) (Leukemia/Lymphoma; 40 mg/m^2 Q0x5): 34% | Response Rate (Leukemia/Lymphoma; 200 mg Q3): No resp. | Reported Toxicities: Gastrointestinal (Leukemia/Lymphoma; in vivo): 76% | Reported Toxicities: Neutropenia (Leukemia/Lymphoma; in vivo): 91% | Reported Toxicities (Leukemia/Lymphoma; incidence not given): Thrombocytopenia | Reported Toxicities: NN (Colon cancer): 35% | Reported Toxicities: Neutropenia (Colon cancer): 53% | Reported Toxicities: diarrhea (Colon cancer): 24% | Response (PR) (Colon cancer): 6/17 | Response Rate (Colon cancer): 46% | Reported Toxicities: N/V (Cervical cancer): 51% | Reported Toxicities: Neutropenia (Cervical cancer): 89% | Reported Toxicities: alopecia (Cervical cancer): 38.1% | Reported Toxicities: diarrhea (Cervical cancer): 39.1% | Response (complete responses) (Cervical cancer): SCR | Response: PR (Cervical cancer): 8 PR | AUC ([4]; CPT-11 50 mg/m^2/wkx4): 2970 ng·h/mL | CpMax ([4]; CPT-11 50 mg/m^2/wkx4): 1.70 µg/mL | AUC ([4]; CPT-11 100 mg/m^2/wkx4): 2230 ng·h/mL | CpMax ([4]; CPT-11 100 mg/m^2/wkx4): 1.29 µg/mL | AUC ([4]; CPT-11 150 mg/m^2/wk X4): 2810 ng·h/mL | CpMax ([4]; CPT-11 150 mg/m^2/wk X4): 1.56 µg/mL | AUC ([4]; CPT-11 180 mg/m^2/wk X4): 3830 ng·h/mL | CpMax ([4]; CPT-11 180 mg/m^2/wk X4): 1.97 µg/mL | AUC [4, 17]: 1130 ng·h/mL | CpMax [4, 17]: 0.89 µg/mL | inhibition of purified topoisomerase I [5]: inhibited | sensitivity of human tumors in relation to ability to produce HECPT (human tumors): independent of their ability to produce HECPT | sporadic toxicities [6]: less sporadic toxicities | interpatient variability in AUC and metabolism to HECPT ([7]; 5-day continuous intravenous infusion): large range of interpatient variability | Fractional amount of lactone species, CpMax Based ([8]; single dose I.V. CPT-11 50 mg/m^2): 0.51 | Fractional amount of lactone species, CpMax Based ([8]; single dose I.V. CPT-11 80 mg/m^2): 0.44 | Fractional amount of lactone species, CpMax Based ([8]; single dose I.V. CPT-11 100 mg/m^2): 0.53 | Fractional amount of lactone species, CpMax Based ([8]; single dose I.V. CPT-11 125 mg/m^2): 0.55 | Fractional amount of lactone species, CpMax Based ([8]; single dose I.V. CPT-11 150 mg/m^2): 0.42 | Fractional amount of lactone species, CpMax Based ([8]; single dose I.V. CPT-11 180 mg/m^2): 0.42

CCc1c2c(nc3ccccc13)-c1cc3c(c(=O)n1C2)COC(=O)C3(O)CC (stereo not drawn) [ECPT, 7-ethyl camptothecin]
results relative to CPT-11 under the same conditions (L1210 leukemia): inferior | solubility in water [9]: insufficiently water soluble for clinical use | antitumor activity in preclinical studies (preclinical tumor models): broad anticancer activity | inhibition of Topoisomerase I (topoisomerase I [10]): potent inhibitor

CCc1c2c(nc3ccc(O)cc13)-c1cc3c(c(=O)n1C2)COC(=O)[C@]3(O)CC [HECPT, 10-hydroxy 7-ethyl camptothecin]
CpMax of HECPT with increases in dose of CPT-11 [11]: decrease | overall fractional concentration of the lactone species through a range of doses [1]: fairly constant | AUC ([4]; CPT-11 50 mg/m^2/wkx4): 195.5 ng·h/mL | CpMax ([4]; CPT-11 50 mg/m^2/wkx4): 0.0393 µg/mL | AUC ([4]; CPT-11 100 mg/m^2/wkx4): 214.8 ng·h/mL | CpMax ([4]; CPT-11 100 mg/m^2/wkx4): 0.0316 µg/mL | AUC ([4]; CPT-11 150 mg/m^2/wk X4): 123.2 ng·h/mL | CpMax ([4]; CPT-11 150 mg/m^2/wk X4): 0.0367 µg/mL | AUC ([4]; CPT-11 180 mg/m^2/wk X4): 232.8 ng·h/mL | CpMax ([4]; CPT-11 180 mg/m^2/wk X4): 0.0262 µg/mL | AUC [4, 17]: 62.2 ng·h/mL | inhibitory activity against topoisomerase I relative to CPT-11 (topoisomerase I [12]): 3600 fold | potency in generating single-strand DNA breaks relative to CPT-11 (MOLT3 cells): approximately 1000 fold | anti-tumor activity compared to CPT-11 in vivo (P388 tumor): little anti-tumor activity | results relative to CPT-11 under the same conditions (L1210 leukemia): inferior | inhibition of purified topoisomerase I [5]: inhibited | plasma concentration of HECPT in mice [13]: maintained longer after CPT-11 administration than after treatment with HECPT | greatest quantitative biochemical effect (DNA single-strand breaks): DNA single-strand breaks that occur during the S-phase | reversibility of cleavable complex stabilization (topoisomerase I [10]): readily reversible | AUC ([7]; CPT-11 25 mg/m^2/dx5): 1080 ng·h/mL | CpMax ([7]; CPT-11 25 mg/m^2/dx5): 0.0104 µg/mL | AUC ([7]; CPT-11 30 mg/m^2/dx5): 960 ng·h/mL | AUC ([7]; CPT-11 35 mg/m^2/dx5): 910 ng·h/mL | CpMax ([7]; CPT-11 35 mg/m^2/dx5): 0.0068 µg/mL | AUC ([7]; CPT-11 40 mg/m^2/dx5): 860 ng·h/mL | CpMax ([7]; CPT-11 40 mg/m^2/dx5): 0.0080 µg/mL | toxicity of HECPT relative to CPT-11 (suggested) ([7]; Ohe et al.): more toxic moiety | correlation between HECPT pharmacokinetics and dose or CPT-11 pharmacokinetics and toxicity ([7]; human subjects): lack of correlation

COc1cc([C@@H]2c3cc4c(cc3[C@@H](O[C@@H]3O[C@@H]5CO[C@@H](C)O[C@H]5[C@H](O)[C@H]3O)[C@H]3COC(=O)[C@H]23)OCO4)cc(OC)c1O [etoposide]
bioavailability following oral administration versus intravenous [14]: substantially equivalent

CC[C@@]1(O)C(=O)OCc2c1cc1n(c2=O)Cc2cc3ccccc3nc2-1 [lactone form of camptothecin]
toxicity relative to sodium camptothecin [15]: 10 fold | antitumor activity in preclinical studies (preclinical tumor models): significant antitumor activity

CCC(O)(C(=O)O)c1cc2n(c(=O)c1CO)Cc1cc3ccccc3nc1-2 (stereo not drawn) [sodium camptothecin]
toxicity in Phase II studies [16]: unpredictable and severe myelosuppression, gastrointestinal toxicity, hemorrhagic cystitis, and alopecia

CC[C@@]1(O)C(=O)OCc2c1cc1n(c2=O)Cc2cc3c(CN(C)C)c(O)ccc3nc2-1 [topotecan]
activity relative to parent compound ([6]; human, in vivo): retain significant activity of the parent compound | sporadic toxicities [6]: less sporadic toxicities
